This is an account of results in patent US11124495B2, “Tetrahydroisoquinolines and terahydronaphthyridines for the treatment of hepatitis B virus infection” (Hoffmann-La Roche Inc., priority 2016, dated 2021).

Test [1] deals with HBV DNA. The test is described as follows: HBV DNA assay (real-time qPCR of extracellular HBV DNA, HepG2.2.15 cells). The settings on record: Hepatitis B virus, 144 h, extracellular HBV DNA in supernatant, six days after treatment, read-out: IC50, anti HBV DNA production activity. It counts as cell-based. As to the method:
(§1) HepG2.2.15 cells (Acs et al. Proc Natl Acad Sci USA, 84, (1987), 4641-4), a constitutively HBV-expressing cell line were cultured in DMEM+Glutamax-I medium (Invitrogen, Carlsbad, Calif., USA), supplemented with 10% fetal bovine serum (Invitrogen) and G418 (Invitrogen) at a final concentration of 200 mg/L and maintained in 5% CO2 at 37° C.
The assay employs real-time qPCR (TaqMan) to directly measure extracellular HBV DNA copy number in the cell supernatant. HepG2.2.15 cells were plated in 96-well microtiter plates before treatment with complete medium (DMEM, Glutamax, 10% FBS, 1% Penicillin/Streptomycin, 250 μg/mL Genetycin, final DMSO concentration is 1%). Only the interior wells were utilized to reduce “edge effects” observed during cell culture, the exterior wells were filled with complete medium to help minimize sample evaporation. […]

Test [2] deals with HBsAg. Briefly: HBsAg assay (CLIA on supernatant of HepG2.2.15 cells). It counts as cell-based, HBV. The conditions noted are these: Hepatitis B virus, HepG2.2.15, read-out: IC50 in HBsAg assay, HepG2.2.15 cells; HBsAg secretion reduced by 50% compared to the no drug control. As for the experimental part:
as §1
HepG2.2.15 cells were seeded in duplicate into white, 96-well plates at 1.5×10^4 cells/well. The cells were treated with a three-fold serial dilution series of the compounds in DMSO. The final DMSO concentration in all wells was 1% and DMSO was used as no drug control.
The HBsAg chemiluminescence immunoassay (CLIA) kit (Autobio Diagnostics Co., Zhengzhou, China, Catalog number: CL0310-2) was used to measure the levels of secreted HBV antigens semi-quantitatively. For the detection 50 μL/well culture supernatant was used and HBsAg was quantified using HBsAg chemiluminescence immunoassay (CLIA) kit (Autobio Diagnostics Co., Zhengzhou, China, Catalog number: CL0310-2), 50 μL of the supernatant was transferred to the CLIA assay plate and 50 μL of enzyme conjugate reagent was added into each well. The plates were sealed and gently agitated for 1 hour at room temperature. The supernatant-enzyme-mixture was discarded and wells were washed 6 times with 300 μL of PBS. The residual liquid was removed by plating the CLIA plate right side down on absorbent tissue paper. 25 μL of substrates A and B were added to each well. Luminance was measured using a luminometer (Mithras LB 940 Multimode Microplate Reader) after 10 minutes incubation. Dose-response curves were generated and the IC50 value was extrapolated by using the E-WorkBook Suite (ID Business Solutions Ltd., Guildford, UK). The IC50 was defined as the compound concentration at which HBsAg secretion was reduced by 50% compared to the no drug control.
The compounds according to formula I were tested for their capacity to inhibit HBsAg as described herein.

Broadly, the IC50 is the point on the concentration scale where inhibition reaches its midpoint. As for `COc1cc(F)c2c(c1)CN(c1cnc(-c3ncccn3)cn1)CC2` [Example 8, 5-Fluoro-7-methoxy-2-(5-pyrimidin-2-ylpyrazin-2-yl)-3,4-dihydro-1H-isoquinoline], the half-maximal inhibitory concentration (IC50) in test [1] is 292 nM; in test [2] it was 445 nM.
